Source: patent US8470381B2, “Spinosyn antifouling compositions, methods of use thereof and articles protected from attachment of biofouling organisms” (Entarco S.A., priority 2008, dated 2013)
Where “and” joins values, the source holds several entries; their conditions need not be identical. Identical values can stand only once. Entries after “also recorded” stand apart in the source; their conditions may differ.

Experiments:
[1] = test system: barnacle cyprids (Balanus amphitrite Darwin); assay: Barnacle cyprid settlement assay and EC50 determination; assay type: in vivo; conditions: for % of set: dishes a, b, c and Total (mean), control mean 78
Excerpt: The barnacle, Balanus amphitrite Darwin, is the most ubiquitous hard fouling organism found in all marine ecosystems, particularly in ports visited by commercial shipping. The methods used in this evaluation have been described in detail in a number of publications (Rittschof D, Clare A S, Gerhart D J, Avelin Mary, Bonavetura J (1991) Barnacle in vitro assays for biologically active substances: toxicity and settlement assays using mass cultured Balanus amphitrite amphitrite Darwin. Biofouling 6:115-122.
The barnacle adults are cultured in the laboratory and allowed to spawn naturally. The larvae are harvested and grown in artificial culture systems until they reach the cyprid stage at which time the larvae become competent to attach to surfaces. Once attached, the cyprids transform into a pinhead barnacle, thus becoming permanently attached to the surface.
The sample solution tested was a 23.2% w/w solution of Tracer in distilled water (equivalent to 10% w/w in pure spinosad or 100 mg spinosad/ml). The sample was stirred prior to making serial dilutions.
The data are summarized in the Tables 2 and 3 below along with the calculations for the EC50. […] Thereafter, there was dose dependent attachment from 10^−5 and at lower concentrations, only reaching control values at […]. The EC50 calculation via probit analysis show an EC50 of 7×10^−8 mg/ml.
Additional notes to the data below: 1. Set means the total number of cyprid larvae that have settled and attached on the surface of the petri dish. 2. Non-Set means the total number of cyprids that remain swimming in the seawater and not settled on the surface. 3. Data are expressed as the percentage of cyprids that settled on the surface. 4. Data are summarized and the mean, standard deviation (SD) and the standard error of the mean (SE) are calculated for samples. 5. Tests were conducted in replicates of three dishes per study group; each dish containing anywhere from 75 to 100 cyprids.

Alcaligenes sp (Al) = assay: Agar diffusion antimicrobial assay against marine bacteria associated with Balanus amphitrite; assay type: cell-based; conditions: 24 hours
Experimental: (§1) The effect of spinosad as a bacteriostatic compound was tested against four bacterial species using standard agar diffusion techniques, as described by Avelin et al., J. Chem. Ecol., 19(10), 2155-67 (1993). The bacteria used in the test were as follows: Aeromonas sp (Ae); Alcaligenes sp (Al); Flavobacterium sp (F); and Vibrio sp (V);
(§2) The agar diffusion technique follows the original method by Acar (1980). In a sterilized petri dish 1 ml of 12 hour old nutrient broth culture, comprising of 3.7% of marine broth in distilled water, of each marine bacterial species was transferred along with 20 ml of antibiotic agar medium.
(§3) Sterilized Whatman No. 1 paper discs (6.25 mm diameter) were loaded with the test solution (2.4% w/w Tracer in distilled water) at concentrations calculated in pure spinosad ranging from 10^−1 mg/10 μl to 10^−4 mg/10 μl. Control discs were loaded with only the vehicle. After 24 hours of exposure to the test solution, the zone of inhibition, i.e. the area around the disc devoid of marine bacterial growth was measured by determining the distance from the edge of the disc to the edge of the area showing no bacterial growth (mm).

Aeromonas sp (Ae) = assay: as above; assay type: cell-based; conditions: isolate Ae1, 24 hours
Experimental: as §1, §2, §3

Flavobacterium sp (F) = assay: as above; assay type: cell-based; conditions: 24 hours
Experimental: as §1, §2, §3

Vibrio sp (V) = assay: as above; assay type: cell-based; conditions: 24 hours
Experimental: as §1, §2, §3

Dunaliella tertiolecta = assay: Inhibition of the growth of the fouling microalgae in flask culture; assay type: cell-based; conditions: 10-^2 to 10^−9 mg spinosad/ml; cells counted each day
Experimental: A water emulsion containing 23.2% w/w Tracer®=10% spinosad was used at the start of this assay. Dunaliella tertiolecta was maintained in stock cultures in 20 ml test tubes as seed cultures and maintained on seven day transfer cycle. The marine micro-algae were inoculated into 250 ml conical flasks containing 100 ml of filtered, sterilized seawater in F/2-Guillard-1975 growth medium. The initial 10% spinosad emulsion (coded Entarco 8205 10%), was further dissolved in distilled water and added at various concentrations to each algal culture for final concentrations ranging from 10-^2 mg spinosad/ml to 10^−9 mg spinosad/ml. Controls consisted of algal culture without the test solution. Each test group was comprised of 3 flasks.
The typical culture goes through four phases. Lag phase is characterized by little or no multiplication of the cells. Log phase or exponential phase is when there is a rapid increase in the rate of cell division. During the next phase, called stationary phase, the number of living cells remain constant and there is no further growth. […] The growth of the algal cells in each flask was counted each day by haemocytometer. The entire growth and decline of the culture in the presence or absence of spinosad was determined (Targett, 1988 Allelochemistry in marine organisms: Chemical fouling and antifouling strategies).

Substance: spinosad
- % of set ([1]; 0.1 mg spinosad/ml): 0%
- % of set ([1]; 10−^2 mg spinosad/ml): 0%
- % of set ([1]; 10−^3 mg spinosad/ml): 0%
- % of set ([1]; 10−^4 mg spinosad/ml): 0%
- % of set ([1]; 10−^5 mg spinosad/ml): 7% and 9% and 12%
- % of set ([1]; 10−^7 mg spinosad/ml): 31% and 34% and 42%
- % of set ([1]; 10−^8 mg spinosad/ml): 52% and 57% and 50%
- % of set ([1]; 10−^9 mg spinosad/ml): 63% and 61% and 70%
- % of set ([1]; 10−^10 mg spinosad/ml): 77% and 78% and 71%
- % of set ([1]; 10−^11 mg spinosad/ml): 77% and 79% and 72%
- mortality of cyprids ([1]; all concentrations tested): absence of any mortality; also recorded: no mortality seen at all concentrations tested
- cyprid settlement ([1]; from 10^−1 to 10^−4 mg/ml): no cyprid settlement
- mortality of cyprids ([1]; highest concentration used (0.1 mg spinosad/ml)): no mortality was observed
- EC50 on the settlement of barnacle cyprids ([1]; probit analysis): 0.07 ng/mL
- zone of inhibition (Alcaligenes sp (Al); isolate Al1, 10^−1 mg/10 μl (10000 ppm spinosad)): 8 mm
- zone of inhibition (Alcaligenes sp (Al); isolate Al1, 10^−2 mg/10 μl (1000 ppm spinosad)): 6 mm
- zone of inhibition (Alcaligenes sp (Al); isolate Al1, 10^−3 mg/10 μl (100 ppm spinosad)): 6 mm
- zone of inhibition (Alcaligenes sp (Al); isolate Al1, 10^−4 mg/10 μl (10 ppm spinosad)): 6 mm
- zone of inhibition (Alcaligenes sp (Al); isolate Al2, 10^−1 mg/10 μl (10000 ppm spinosad)): 7 mm
- zone of inhibition (Alcaligenes sp (Al); isolate Al2, 10^−2 mg/10 μl (1000 ppm spinosad)): 6.5 mm
- zone of inhibition (Alcaligenes sp (Al); isolate Al2, 10^−3 mg/10 μl (100 ppm spinosad)): 5.5 mm
- zone of inhibition (Alcaligenes sp (Al); isolate Al2, 10^−4 mg/10 μl (10 ppm spinosad)): 5.5 mm
- zone of inhibition (Aeromonas sp (Ae); 10^−1 mg/10 μl (10000 ppm spinosad)): 7.5 mm
- zone of inhibition (Aeromonas sp (Ae); 10^−2 mg/10 μl (1000 ppm spinosad)): 7 mm
- zone of inhibition (Aeromonas sp (Ae); 10^−3 mg/10 μl (100 ppm spinosad)): 7 mm
- zone of inhibition (Aeromonas sp (Ae); 10^−4 mg/10 μl (10 ppm spinosad)): 5.5 mm
- zone of inhibition (Flavobacterium sp (F); isolate F1, 10^−1 mg/10 μl (10000 ppm spinosad)): 7.5 mm
- zone of inhibition (Flavobacterium sp (F); isolate F1, 10^−2 mg/10 μl (1000 ppm spinosad)): 6 mm
- zone of inhibition (Flavobacterium sp (F); isolate F1, 10^−3 mg/10 μl (100 ppm spinosad)): 6 mm
- zone of inhibition (Flavobacterium sp (F); isolate F1, 10^−4 mg/10 μl (10 ppm spinosad)): 6 mm
- zone of inhibition (Flavobacterium sp (F); isolate F2, 10^−1 mg/10 μl (10000 ppm spinosad)): 7.5 mm
- zone of inhibition (Flavobacterium sp (F); isolate F2, 10^−2 mg/10 μl (1000 ppm spinosad)): 6 mm
- zone of inhibition (Flavobacterium sp (F); isolate F2, 10^−3 mg/10 μl (100 ppm spinosad)): 6 mm
- zone of inhibition (Flavobacterium sp (F); isolate F2, 10^−4 mg/10 μl (10 ppm spinosad)): 6 mm
- zone of inhibition (Vibrio sp (V); isolate V1, 10^−1 mg/10 μl (10000 ppm spinosad)): 8 mm
- zone of inhibition (Vibrio sp (V); isolate V1, 10^−2 mg/10 μl (1000 ppm spinosad)): 5.5 mm
- zone of inhibition (Vibrio sp (V); isolate V1, 10^−3 mg/10 μl (100 ppm spinosad)): 5.5 mm
- zone of inhibition (Vibrio sp (V); isolate V1, 10^−4 mg/10 μl (10 ppm spinosad)): 5.5 mm
- zone of inhibition (Vibrio sp (V); isolate V2, 10^−1 mg/10 μl (10000 ppm spinosad)): 8 mm
- zone of inhibition (Vibrio sp (V); isolate V2, 10^−2 mg/10 μl (1000 ppm spinosad)): 7 mm
- zone of inhibition (Vibrio sp (V); isolate V2, 10^−3 mg/10 μl (100 ppm spinosad)): 6 mm
- zone of inhibition (Vibrio sp (V); isolate V2, 10^−4 mg/10 μl (10 ppm spinosad)): 6 mm
- growth of Dunaliella tertiolecta (FIG. 1) (Dunaliella tertiolecta): significant microalgae inhibitory properties which are dose dependent
